Experimental findings from patent US8691840B2, “N-biarylamides” (Bayer Intellectual Property GmbH, priority 2003, dated 2014) are described below.

Counter-ions that a name gives are not always drawn. Where only a bound is given, the exact number is not on record here.

Sequence of α7 nAChR (Q05941 23-502 limits assumed): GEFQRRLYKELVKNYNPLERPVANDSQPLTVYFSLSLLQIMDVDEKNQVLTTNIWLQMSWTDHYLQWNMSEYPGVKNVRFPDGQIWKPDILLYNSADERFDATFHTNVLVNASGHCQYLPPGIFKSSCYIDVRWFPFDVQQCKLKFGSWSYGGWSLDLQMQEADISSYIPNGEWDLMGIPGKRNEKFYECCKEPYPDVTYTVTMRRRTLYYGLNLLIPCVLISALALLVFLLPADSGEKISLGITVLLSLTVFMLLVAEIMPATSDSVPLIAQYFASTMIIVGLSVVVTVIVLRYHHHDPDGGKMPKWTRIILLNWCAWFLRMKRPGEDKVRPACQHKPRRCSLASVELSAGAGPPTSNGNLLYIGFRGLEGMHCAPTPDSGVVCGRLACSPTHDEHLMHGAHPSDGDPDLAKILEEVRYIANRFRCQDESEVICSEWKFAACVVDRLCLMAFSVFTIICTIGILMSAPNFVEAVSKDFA

The target in this test is α7 nAChR (Rattus norvegicus (Rat), UniProt Q05941). The test can be described thus: [3H]-methyllycaconitine binding assay, rat brain membranes. Conditions: inhibition of [3H]-methyllycaconitine binding to rat brain membranes; Ki=IC50/(1+L/KD). How it is done:
1. Determination of the Affinity of Test Substances for α7 nAChR by Inhibition of [^3H]-methyllycaconitine Binding to Rat Brain Membranes
The [^3H]-methyllycaconitine binding assay is a modification of the method described by Davies et al. (Neuropharmacol. 1999, 38, 679-690).
Rat brain tissue (hippocampus or whole brain) is homogenized in homogenization buffer (10% w/v) (0.32 M sucrose, 1 mM EDTA, 0.1 mM phenylmethylsulfonyl fluoride (PMSF), 0.01% (w/v) NaN3, pH 7.4, 4° C.) at 600 rpm in a glass homogenizer. The homogenate is centrifuged (1000×g, 4° C., 10 min) and the supernatant is removed. The pellet is resuspended (20% w/v) and the suspension is centrifuged (1000×g, 4° C., 10 min) The two supernatants are combined and centrifuged (15 000×g, 4° C., 30 min). This pellet is referred to as the P2 fraction.
The P2 pellet is washed twice with binding buffer (50 mM Tris-HCl, 1 mM MgCl2, 120 mM NaCl, 5 mM KCl, 2 mM CaCl2, pH 7.4), and centrifuged (15 000×g, 4° C., 30 min).
The P2 membranes are resuspended in binding buffer and incubated in a volume of 250 μl (amount of membrane protein 0.1-0.5 mg) in the presence of 1-5 nM [^3H]-methyllycaconitine, 0.1% (w/v) BSA (bovine serum albumin) and various concentrations of the test substance at 21° C. for 2.5 h. The non-specific binding is determined by incubation in the presence of 1 μM […]-bungarotoxin or 100 μM nicotine or 10 μM MLA (methyllycaconitine).
The incubation is stopped by adding 4 ml of PBS (20 mM Na2HPO4, 5 mM KH2PO4, 150 mM NaCl, pH 7.4, 4° C.) and filtering through type A/E glass fiber filters (Gelman Sciences) which have previously been placed in 0.3% (v/v) polyethyleneimine (PEI) for 3 h. The filters are washed twice with 4 ml of PBS (4° C.), and the bound radioactivity is determined by scintillation measurement. All the assays are carried out in triplicate. The dissociation constant Ki of the test substance was determined from the IC50 of the compounds (concentration of the test substance at which 50% of the ligand bound to the receptor are displaced), the dissociation constant KD and the concentration L of [^3H]methyllycaconitine (Ki=IC50/(1+L/KD)).
For `O=C(Nc1ccc(-c2ccc(NC(=O)[C@H]3CN4CCC3CC4)cc2)cc1)c1cccc(F)c1` [Example 15, (3R)—N-{4′-[(3-Fluorobenzoyl)amino]biphenyl-4-yl}quinuclidine-3-carboxamide hydrochloride], the Ki (in general, the equilibrium dissociation constant of an inhibitor or competing ligand from its target) is 27 nM.

Consider `NS(=O)(=O)c1ccc(-c2ccc(NC(=O)[C@H]3CN4CCC3CC4)cc2)cc1` [Example 7, (3R)—N-[4′-(Aminosulfonyl)biphenyl-4-yl]quinuclidine-3-carboxamide hydrochloride], for which the Ki was less than 1 nM.

`CS(=O)(=O)Nc1ccc(-c2ccc(NC(=O)[C@H]3CN4CCC3CC4)cc2)cc1` [Example 2, (3R)-N-{4′-[(Methylsulfonyl)amino]biphenyl-4-yl}quinuclidine-3-carboxamide hydrochloride]: the Ki was 2 nM.

In turn, `O=C(Nc1ccc(-c2ccc(NS(=O)(=O)c3ccccc3)cc2)cc1)[C@H]1CN2CCC1CC2` [Example 5, (3R)—N-{4′-[(Phenylsulfonyl)amino]biphenyl-4-yl}quinuclidine-3-carboxamide hydrochloride] registered a Ki of less than 1 nM.

With `O=C(Nc1ccc(-c2ccc(NC(=O)[C@H]3CN4CCC3CC4)cc2)cc1)NC1CCCC1` [Example 11, (3R)—N-(4′-{[(Cyclopentylamino)carbonyl]amino}biphenyl-4-yl)quinuclidine-3-carboxamide hydrochloride], the affinity corresponds to a Ki of 16 nM.
